These results are taken from the NIST ThermoML archive (doi:10.1021/acs.jced.8b00610).

For this data set the following is noted: Liquid, Ebulliometric method (Recirculating still).

Values joined by “and” are separate entries in the source; they are usually repeats but may differ in a detail not shown here. Equal values may be shown once. Numbers after ± are expanded uncertainties.

For orientation: vapor or sublimation pressure means the equilibrium pressure above the liquid or solid. In the case of `CC(C)O` [propan-2-ol], the “vapor or sublimation pressure” value (355.7 K) was 101.3 ± 1.4 kPa and 101.32 ± 10 kPa. For the compound `O` [water], where the note is “373.1 K”, the “vapor or sublimation pressure” value was 101.3 ± 1.4 kPa.
